# Experimental data from patent US7851632B2, “Biphenyl compounds useful as muscarinic receptor antagonists” (Theravance, Inc., priority 2004, dated 2010).
# Test system: ACh-induced bronchoconstriction
# Assay: Duration of bronchoprotection in guinea pig model of acetylcholine-induced bronchoconstriction
# Assay type: in vivo
# Conditions: inhalation, 1.5 hours post-dose
# Procedure: Determination of Duration of Bronchoprotection in Guinea Pig Model of Acetylcholine-Induced Bronchoconstriction
# Groups of six male guinea pigs (Duncan-Hartley (HsdPoc:DH) Harlan, Madison, Wis.) weighing between 250 and 350 g were individually identified by cage cards. Throughout the study animals were allowed access to food and water ad libitum.
# Test compounds were administered via inhalation over 10 minutes in a whole-body exposure dosing chamber (R&S Molds, San Carlos, Calif.). The dosing chambers were arranged so that an aerosol was simultaneously delivered to 6 individual chambers from a central manifold. Guinea pigs were exposed to an aerosol of a test compound or vehicle (WFI). […] This was measured gravimetrically by comparing pre- and post-nebulization weights of the filled nebulizer.
# The bronchoprotective effects of test compounds administered via inhalation were evaluated using whole body plethysmography at 1.5, 24, 48 and 72 hours post-dose.
# Forty-five minutes prior to the start of the pulmonary evaluation, each guinea pig was anesthetized with an intramuscular injection of ketamine (43.75 mg/kg), xylazine (3.50 mg/kg) and acepromazine (1.05 mg/kg). […] The depth of anesthesia was monitored and adjusted if the animal responded to pinching of its paw or if the respiration rate was greater than 100 breaths/minute. […]
smiles,measurement,value
"CN(CCN1CCC(OC(=O)Nc2ccccc2-c2ccccc2)CC1)C(=O)c1ccc(CNCc2ccc(O)cc2)cc1 [Example 1, Biphenyl-2-ylcarbamic Acid 1-[2-({4-[(4-Hydroxybenzylamino)methyl]benzoyl}methylamino)ethyl]piperidin-4-yl Ester]",PD2(50) for ACh-induced bronchoconstriction,less than 200 μg/mL
